# Measurements published in US20130095094A1, “ASSAY” (University of Leicester, priority 2010, published 2013).
# B1: flagellin: S. typhimurium flagellin purchased from Invivogen, TLR5 standard (protein, UniProt P06179 2-495, looked up)
# Flagellin: AQVINTNSLSLLTQNNLNKSQSALGTAIERLSSGLRINSAKDDAAGQAIANRFTANIKGLTQASRNANDGISIAQTTEGALNEINNNLQRVRELAVQSANSTNSQSDLDSIQAEITQRLNEIDRVSGQTQFNGVKVLAQDNTLTIQVGANDGETIDIDLKQINSQTLGLDTLNVQQKYKVSDTAATVTGYADTTIALDNSTFKASATGLGGTDQKIDGDLKFDDTTGKYYAKVTVTGGTGKDGYYEVSVDKTNGEVTLAGGATSPLTGGLPATATEDVKNVQVANADLTEAKAALTAAGVTGTASVVKMSYTDNNGKTIDGGLAVKVGDDYYSATQNKDGSISINTTKYTADDGTSKTALNKLGGADGKTEVVSIGGKTYAASKAEGHNFKAQPDLAEAAATTTENPLQKIDAALAQVDTLRSDLGAVQNRFNSAITNLGNTVNNLTSARSRIEDSDYATEVSNMSRAQILQQAGTSVLAQANQVPQNVLSLLR
# Assays:
# human TLR-2 = target: T1, human TLR-2 (Homo sapiens, UniProt O60603); assay: TLR-transfection NF-κB reporter (pELAM) assay, HEK-293 cells transfected with TLR-2 and CD14; format: cell-based
# T1 construct: host or cells: HEK-293
# Method: (§1) For transfection assays, human embryonic kidney (HEK)-293 cells were plated in 96 well plates at 10^4 cells per well and transfected after 24 h using Genejuice (Novagen) according to manufacturer's instructions. The following amounts of constructs were added to each well: 30 ng of human TLR-2, TLR-5 or TLR-4 (co-expressing MD-2), 30 ng of pCD14 and 10 ng of NF-κB-sensitive luciferase-reporter construct (pELAM). Cells were grown for 3 days post transfection prior to 18 h challenge. Promoter expression was calculated as fold induction relative to cells cultured in medium alone +/−SD. Endogenous expression of TLRs in HEK-293 has been ruled out by RT-PCR by the inventor.
# (§2) Log-transformed PAMP concentrations were then plotted against fold-induction of NF-κB reporter to generate a standard curve. […] For example, results presented as 200 ng/g BLP-equivalent means that each gramme of food contains TLR-2-stimulants with a capacity to stimulate TLR-2-signalling equal to that of 200 ng Pam3CSK4. Food extracts were measured at 1:10 dilution in DMEM/10% FCS in duplicate. If signals exceeded the range of the standard curve, further dilutions were prepared and reassayed.
# Samples were then maintained at 100 ° C. for 1 -120 min, before cooling, diluting 1:10 in DMEM/10% FCS and applying to HEK-293 cells transfected with TLR-2 or TLR-4/MD2 for measurement of capacity to induce TLR-signalling as described above. […] Samples were then neutralised by addition of NaOH solution and applied to TLR-transfected HEK-293 cells as described above.
# As a negative control, parallel samples were supplemented with an equal molarity of NaCl to account for increased salinity of samples due to acid/base neutralisation. […] Control samples were also heat-treated for 10 minutes.
# TLR-stimulants were quantified in both whole heat-treated saliva (100° C. for 10 minutes), intended to reflect total bacteria-associated TLR-stimulants, and in saliva diluted 1:10 in PBS and filter-sterilised (0.22 μm, Acrodisc), intended to reflect soluble TLR-stimulants in human saliva. A recently developed bioassay based upon the measurement of NF-κB-dependent reporter activation in TLR-deficient HEK-293 cells transfected with human TLR2, TLR4/MD2 or TLR5, and callibrated with TLR2-, TLR4- or TLR5-stimulating standards (Erridge et al., 2010, Public Library of Science One 5, e9125), was used to quantify TLR-stimulants in saliva samples. Briefly, cells were plated in 96-well plates at 2×10^4 cells per well and transfected after 24 h using Genejuice (Novagen). Amounts of construct per well were 30 ng of human TLR2, TLR4 (co-expressing MD-2) or TLR5 (Invivogen), 30 ng of CD14 and 10 ng of firefly luciferase-reporter construct driven by the NF-KB dependent E-selectin promoter (pELAM). 3 days after transfection, cells were challenged in triplicate with heat-treated or sterile-filtered saliva samples diluted 1:100 in DMEM/1%FCS. […] After 18 h, NF-κB-dependent reporter expression was measured using Promega Dual-Glo reagent. Fold induction of reporter was calculated relative to cells cultured in medium alone and a standard curve was prepared by plotting fold NF-κB induction vs concentration for each standard PAMP. […] For example, results presented as 200 ng/ml lipopeptide-equivalents indicate that 1 ml of saliva contains TLR2-stimulants with a capacity to stimulate TLR2-signalling equal to that of 200 ng Pam3CSK4. The coefficient of variance of the assay averaged ˜20%. […]
# [1] = system: HEK-293 cells transfected with CD14 alone; assay: NF-κB reporter in HEK-293 cells transfected with CD14 and reporter alone (no corresponding TLR); format: cell-based, human; conditions: data not shown
# human monocytes = assay: Challenge of human monocytes with food extracts, TNF-α (L929 bioassay) / IL-6 (ELISA) secretion; format: cell-based; conditions: 25 μg/ml OxPAPC, filter-sterilised food extracts, 4 h
# Method: Venous blood was collected by venepuncture from consenting healthy human subjects according to the guidelines laid down in the Declaration of Helsinki and all procedures involving human subjects were approved by the University of Leicester College of Medicine Research Ethics Committee. Written informed consent was obtained from all subjects. Peripheral blood mononuclear cells (PBMC) were prepared by density gradient centrifugation at 800 g for 25 min using Histopaque-1077 (Sigma). Recovered cells were washed twice in PBS solution, resuspended in RPMI/10% fetal calf serum (FCS) (Sigma) and plated in 96-well plates at 4×10^5 cells per well. Monocytes were prepared from PBMC by plastic adherence (1 h at 37° C.), followed by gentle washing to remove non-adherent cells. Remaining monocytes were then challenged by adding a 1:20 dilution of each sterile-filtered food extract in tissue culture medium. After incubation at 37° C. for 4 h, supernatants were removed for assay of TNF-α content by L929-cell bioassay as described in Delahooke et al. (1995, Infect. Immun. 63, 840-846), or IL-6 levels were measured by ELISA (R&D) after 18 h.
# [2] = system: HEK-293 cells transfected with CD14 alone; conditions: 10 μg/ml, positive control; cited from earlier work
# human TLR-5 = target: T2, human TLR-5 (Homo sapiens, UniProt O60602); assay: TLR-transfection NF-κB reporter (pELAM) assay, HEK-293 cells transfected with TLR-5 and CD14; format: cell-based
# T2 construct: host or cells: HEK-293
# Method: as §1, §2
# TLR-stimulants were quantified in both whole heat-treated saliva (100° C. for 10 minutes), intended to reflect total bacteria-associated TLR-stimulants, and in saliva diluted 1:10 in PBS and filter-sterilised (0.22 μm, Acrodisc), intended to reflect soluble TLR-stimulants in human saliva. A recently developed bioassay based upon the measurement of NF-κB-dependent reporter activation in TLR-deficient HEK-293 cells transfected with human TLR2, TLR4/MD2 or TLR5, and callibrated with TLR2-, TLR4- or TLR5-stimulating standards (Erridge et al., 2010, Public Library of Science One 5, e9125), was used to quantify TLR-stimulants in saliva samples. […] After 18 h, NF-κB-dependent reporter expression was measured using Promega Dual-Glo reagent. Fold induction of reporter was calculated relative to cells cultured in medium alone and a standard curve was prepared by plotting fold NF-κB induction vs concentration for each standard PAMP. […]
# [3] = pH 1.0 with HCl 2 h or 3 h, then neutralised
# T1 sequence (O60603 21-784): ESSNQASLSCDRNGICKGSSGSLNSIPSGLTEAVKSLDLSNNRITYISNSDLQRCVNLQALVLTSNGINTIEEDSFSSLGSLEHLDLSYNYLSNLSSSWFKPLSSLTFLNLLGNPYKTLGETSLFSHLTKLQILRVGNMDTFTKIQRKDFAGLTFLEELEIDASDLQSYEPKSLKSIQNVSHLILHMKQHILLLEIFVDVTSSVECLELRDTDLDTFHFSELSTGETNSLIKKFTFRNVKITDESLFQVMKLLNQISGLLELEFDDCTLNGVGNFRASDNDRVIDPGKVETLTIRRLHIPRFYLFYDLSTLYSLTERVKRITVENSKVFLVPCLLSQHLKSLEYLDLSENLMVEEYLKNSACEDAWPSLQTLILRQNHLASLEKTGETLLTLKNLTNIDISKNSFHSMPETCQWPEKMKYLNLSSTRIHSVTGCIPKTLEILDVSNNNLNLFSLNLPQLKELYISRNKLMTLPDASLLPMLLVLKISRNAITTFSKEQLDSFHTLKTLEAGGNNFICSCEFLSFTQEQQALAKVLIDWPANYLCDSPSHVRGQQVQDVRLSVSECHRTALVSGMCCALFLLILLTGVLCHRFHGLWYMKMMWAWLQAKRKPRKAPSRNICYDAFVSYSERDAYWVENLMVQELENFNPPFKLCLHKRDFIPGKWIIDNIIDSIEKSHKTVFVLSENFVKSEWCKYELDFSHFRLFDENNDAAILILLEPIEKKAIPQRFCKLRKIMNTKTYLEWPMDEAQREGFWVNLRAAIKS
# T2 sequence (O60602 21-858): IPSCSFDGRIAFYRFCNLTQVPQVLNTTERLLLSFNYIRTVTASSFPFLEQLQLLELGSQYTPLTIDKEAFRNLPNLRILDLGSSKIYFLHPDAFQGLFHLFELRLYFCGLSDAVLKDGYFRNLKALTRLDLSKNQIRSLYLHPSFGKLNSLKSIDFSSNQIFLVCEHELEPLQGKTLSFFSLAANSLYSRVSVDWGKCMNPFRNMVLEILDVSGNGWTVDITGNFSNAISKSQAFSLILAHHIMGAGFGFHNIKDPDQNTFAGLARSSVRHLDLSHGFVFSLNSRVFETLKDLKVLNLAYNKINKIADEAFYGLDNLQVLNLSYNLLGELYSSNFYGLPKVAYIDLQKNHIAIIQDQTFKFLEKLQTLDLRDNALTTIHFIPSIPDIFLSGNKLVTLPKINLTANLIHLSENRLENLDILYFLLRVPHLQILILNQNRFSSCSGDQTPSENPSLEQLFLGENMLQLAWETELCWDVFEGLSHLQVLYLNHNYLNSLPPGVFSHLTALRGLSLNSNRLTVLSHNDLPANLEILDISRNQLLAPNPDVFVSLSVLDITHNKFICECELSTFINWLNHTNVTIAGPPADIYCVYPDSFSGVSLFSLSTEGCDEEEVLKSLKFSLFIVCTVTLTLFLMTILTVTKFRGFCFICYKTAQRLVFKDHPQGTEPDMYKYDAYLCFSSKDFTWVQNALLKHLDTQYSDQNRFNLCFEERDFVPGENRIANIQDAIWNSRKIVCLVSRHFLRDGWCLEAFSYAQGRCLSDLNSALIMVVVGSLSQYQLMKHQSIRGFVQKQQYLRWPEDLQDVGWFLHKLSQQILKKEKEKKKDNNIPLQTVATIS
molecule,measurement,setting,value
Pam3CSK4,Biological activity (TLR-2 signalling) after heating,"human TLR-2; 100 ng/ml, 100° C. for up to 2 hours",not measurably reduced
same,Minimum concentration to which transfected cells were sensitive,human TLR-2; TLR-2 transfected HEK-293,0.1 ng/mL
same,Capacity to stimulate TLR-2 after low pH treatment,human TLR-2; [3],did not affect
same,Biological activity (TLR-2) after protease treatment,human TLR-2; proteinase-K 37° C. 1 h,unaffected
same,"Activation of HEK-293 cells transfected with CD14 alone, or with non-corresponding TLRs",[1],unable to activate
oxidised palmitoyl-arachidonyl phosphocholine [OxPAPC],Inhibition of TLR2-dependent signalling induced by patient saliva samples,"human TLR-2; 25 μg/ml OxPAPC, filter-sterilised saliva 1:100, 18 h",significantly blocked
same,TNF-α secretion in response to each stimulant-containing foodstuff in presence of OxPAPC,human monocytes,completely abrogated
polyinosinic acid [PolyI:C],NF-κB activation in HEK-293 cells,[2],"stimulates NF-κB activation independently of TLR2, TLR4 or TLR5"
B1,Biological activity (TLR5 signalling) after heating,"human TLR-5; 100 ng/ml, 100° C., by 1 h",almost completely abolished
same,Biological activity (TLR5) after low pH treatment,human TLR-5; [3],increased
same,Bioactivity (TLR5) after protease treatment,human TLR-5; proteinase-K 37° C. 1 h,abolished
same,"Activation of HEK-293 cells transfected with CD14 alone, or with non-corresponding TLRs",[1],unable to activate
